Source: patent EP3325465B1, “PESTICIDALLY ACTIVE PYRAZOLE DERIVATIVES” (Syngenta Participations AG, priority 2015, dated 2017)
Read-outs that look alike come from different tables or passages of the source.

Legend:
Assay type in all cases: in vivo
[1] = test system: Thrips tabaci (Onion thrips); assay: Biological comparison b): insecticidal activity against Thrips tabaci, sunflower leaf discs; conditions: foliar, 144 h
Description: b) Insecticidal activity against Thrips tabaci (Onion thrips): Sunflower leaf discs were placed on agar in 24-well microtiter plates and sprayed with aqueous test solutions prepared from 10'000 ppm DMSO stock solutions. After drying the leaf discs were infested with a thrips population of mixed ages. The samples were assessed for mortality 6 days after infestation.

[2] = test system: Spodoptera littoralis (Egyptian cotton leaf worm); assay: Spodoptera littoralis cotton leaf disc spray test, L1 larvae; conditions: foliar, 72 h, application rate of 200 ppm, 3 days after infestation, L1 larvae, read-out: mortality
Procedure, shortened: (§1)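 Leaf discs on agar sprayed with aqueous dilutions of 10'000 ppm DMSO stocks, then infested after drying: Myzus persicae (sunflower, 200 ppm, mixed ages), mortality at 6 DAT; Thrips tabaci (sunflower, mixed ages), mortality at 6 days; Tetranychus urticae (bean, mixed ages), mobile-stage mortality at 8 days; Spodoptera littoralis (cotton), five L1 larvae per disc.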

[3] = test system: Plutella xylostella (Diamond back moth); assay: Plutella xylostella artificial diet test, L2 larvae; conditions: 120 h, application rate of 200 ppm, mortality and growth inhibition 5 days after infestation
Procedure, shortened: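 Artificial diet in 24-well microtiter plates was treated by pipetting with aqueous test solutions made from 10'000 ppm DMSO stock solutions. Once dry, each well received 10 to 15 second-instar (L2) Plutella xylostella larvae. Mortality and growth inhibition were scored against untreated samples 5 days after infestation.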

[4] = test system: Diabrotica balteata, (Corn root worm); assay: Diabrotica balteata maize sprout spray test, L2 larvae; conditions: 96 h, application rate of 200 ppm, 4 days after infestation, L2 larvae, read-out: mortality
Procedure, shortened: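 Test solutions in water, made from DMSO stock solutions at 10'000 ppm, were sprayed onto maize sprouts resting on an agar layer in 24-well microtiter plates. Once the treated sprouts had dried, each well was infested with 6 to 10 second-instar (L2) Diabrotica balteata corn rootworm larvae, and mortality was then scored as percent.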

[5] = test system: Thrips tabaci (Onion thrips); assay: Thrips tabaci sunflower leaf disc spray test; conditions: foliar, 144 h, application rate of 200 ppm, mortality 6 days after infestation, mixed ages
Procedure, shortened: as §1

[6] = test system: Tetranychus urticae (Two-spotted spider mite); assay: Tetranychus urticae bean leaf disc spray test; conditions: foliar, 192 h, application rate of 200 ppm, mortality on mixed population (mobile stages) 8 days after infestation
Procedure, shortened: as §1

[7] = test system: Euschistus heros (Neotropical Brown Stink Bug); assay: Euschistus heros soybean plant spray test, N2 nymphs; conditions: 120 h, application rate of 12.5 ppm, 5 days after infestation, N2 nymphs, read-out: mortality of Euschistus heros
Description: (§2) The pesticidal/insecticidal properties of the compounds according to embodiments 1 or 2 can be illustrated via the following tests: Spodoptera littoralis (Egyptian cotton leaf worm) • Cotton leaf discs were placed onto agar in 24-well microtiter plates and sprayed with aqueous test solutions prepared from 10'000 ppm DMSO stock solutions. After drying the leaf discs were infested with five L1 larvae. […] Plutella xylostella (Diamond back moth): 24-well microtiter plates with artificial diet were treated with aqueous test solutions prepared from 10'000 ppm DMSO stock solutions by pipetting. After drying, the plates were infested with L2 larvae (10 to 15 per well). The samples were assessed for mortality and growth inhibition in comparison to untreated samples 5 days after infestation. […] Diabrotica balteata, (Corn root worm) • Maize sprouts placed onto an agar layer in 24-well microtiter plates were treated with aqueous test solutions prepared from 10'000 ppm DMSO stock solutions by spraying. After drying, the plates were infested with L2 larvae (6 to 10 per well). […] Thrips tabaci (Onion thrips): Sunflower leaf discs were placed on agar in 24-well microtiter plates and sprayed with aqueous test solutions prepared from 10'000 ppm DMSO stock solutions. After drying the leaf discs were infested with a thrips population of mixed ages. The samples were assessed for mortality 6 days after infestation. […] Tetranychus urticae (Two-spotted spider mite): Bean leaf discs on agar in 24-well microtiter plates were sprayed with aqueous test solutions prepared from 10'000 ppm DMSO stock solutions. After drying the leaf discs were infested with a mite population of mixed ages. The samples were assessed for mortality on mixed population (mobile stages) 8 days after infestation. […] Euschistus heros (Neotropical Brown Stink Bug): • Two weeks old soybean plants were sprayed in a turn table spray chamber with the diluted spray solutions. After drying 2 soybean seeds were added and plants were infested with 10 N2 nymphs of the neotropical brown stink bug Euschistus heros in plastic test boxes. The samples were assessed for mortality in comparison to untreated samples 5 days after infestation. • The following compounds gave at least 80% mortality of Euschistus heros at an application rate of 12.5 ppm: Compounds 3 , 4 , 8 , 39 , 43 , 44 , 46 , 75 , 76 , 77 , 78 , 79 , 80 , 81 , 82 , 88 , 90 , 93 and 95 . Myzus persicae (Green peach aphid): Sunflower leaf discs were placed on agar in a 24-well microtiter plate and sprayed with test solutions at an application rate of 200 ppm. After drying, the leaf discs were infested with an aphid population of mixed ages. After an incubation period of 6 DAT, samples were checked for mortality. The following compounds gave at least 50% mortality of Myzus persicae: Compounds 3 , 4 , 8 , 43 , 44 , 75 , 76 , 77 , 80 , 81 , 90 and 92 . Myzus persicae (Green peach aphid): • Test compounds were applied by pipette into 24 well plates and mixed with Sucrose solution. Application rate: 12.5ppm. The plates were closed with a stretched parafilm. A plastic stencil with 24 holes is placed onto the plate and infested pea seedlings were placed directly on the Parafilm. The infested plate is closed with a gel blotting paper and another plastic stencil and then turned upside down. […]

[8] = test system: Myzus persicae (Green peach aphid); assay: Myzus persicae sunflower leaf disc spray test; conditions: foliar, 144 h, application rate of 200 ppm, leaf disc spray, 6 DAT, read-out: mortality of Myzus persicae
Description: as §2

[9] = test system: Myzus persicae (Green peach aphid); assay: Myzus persicae sucrose solution / Parafilm feeding test; conditions: 120 h, Application rate: 12.5ppm, sucrose solution, 5 days after infestation, read-out: mortality of Myzus persicae
Description: as §2

[10] = test system: Diabrotica balteata (Corn root worm); assay: Biological comparison a): insecticidal activity against Diabrotica balteata, maize sprouts; conditions: 96 h, 4 days after infestation; for mortality at 0.195 ppm: Concentration 0.195 ppm; for mortality at 0.781 ppm: Concentration 0.781 ppm; for mortality at 3.12 ppm: Concentration 3.12 ppm; for mortality at 12.5 ppm: Concentration 12.5 ppm; for mortality at 50 ppm: Concentration 50 ppm
Description: as §2

[11] = test system: Spodoptera littoralis (Egyptian cotton leaf worm); assay: Biological comparison c): insecticidal activity against Spodoptera littoralis, larvicide L-3, feeding/contact, soybean plants; conditions: 120 h, 5 days after infestation, L3 larvae; for mortality at 0.05 ppm: Concentration 0.05 ppm; for mortality at 0.2 ppm: Concentration 0.2 ppm; for mortality at 0.8 ppm: Concentration 0.8 ppm; for mortality at 3 ppm: Concentration 3 ppm; for mortality at 12.5 ppm: Concentration 12.5 ppm
Description: c) Insecticidal activity against Spodoptera littoralis (Egyptian cotton leaf worm): (larvicide L-3, feeding/contact) Soybean plants are sprayed with diluted test solutions in an application chamber. The plants (2 replicates) are infested with 10 L3 larvae 1 day after treatment. Samples are checked 5 days after infestation for mortality, feeding behavior, and growth regulation.

Row | Compound | mortality at 200 ppm [2] | pest or weed control at 200 ppm [3] | mortality at 200 ppm [4] | pest or weed control at 200 ppm [5] | pest or weed control at 200 ppm [6] | mortality at 12.5 ppm [7] | mortality at 200 ppm [8] | mortality at 12.5 ppm [9] | mortality at 0.195 ppm [10] | mortality at 0.781 ppm [10] | mortality at 3.12 ppm [10] | mortality at 12.5 ppm [10] | mortality at 50 ppm [10] | mortality at 0.05 ppm [11] | mortality at 0.2 ppm [11] | mortality at 0.8 ppm [11] | mortality at 3 ppm [11] | mortality at 12.5 ppm [11] | other results
1 | Cn1nc(C(F)(F)C(F)(F)F)c(C(F)(F)F)c1-n1cc(-c2ccc(Cl)c(C(=O)NC3(C#N)CC3)c2)cn1 [B, reference compound] | – | – | – | – | – | – | – | – | – | – | – | – | – | – | – | – | – | – | mortality at 0.781 ppm [1]: 0%; mortality at 3.12 ppm [1]: 25%; mortality at 12.5 ppm [1]: 90%; mortality at 50 ppm [1]: 100%; mortality at 200 ppm [1]: 100%
2 | Cn1nc(C(F)(F)C(F)(F)F)c(C(F)(F)F)c1-c1cc(-c2ccc(Cl)c(C(=O)NC3(C#N)CC3)c2)on1 [Compound 4, 2-chloro-N-(1-cyanocyclopropyl)-5-[3-[2-methyl-5-(1,1,2,2,2-pentafluoroethyl)-4-(trifluoromethyl)pyrazol-3-yl]isoxazol-5-yl]benzamide] | ≥ 80% | ≥ 80% | ≥ 80% | ≥ 80% | ≥ 80% | ≥ 80% | ≥ 50% | ≥ 80% | 100% | 100% | 100% | 100% | 100% | – | – | – | – | – | mortality at 0.781 ppm ([1]; Concentration 0.781 ppm, 6 days after infestation, read-out: Mortality (%)): 50%; mortality at 3.12 ppm ([1]; Concentration 3.12 ppm, 6 days after infestation, read-out: Mortality (%)): 65%; mortality at 12.5 ppm ([1]; Concentration 12.5 ppm, 6 days after infestation, read-out: Mortality (%)): 80%; mortality at 50 ppm ([1]; Concentration 50 ppm, 6 days after infestation, read-out: Mortality (%)): 100%; mortality at 200 ppm ([1]; Concentration 200 ppm, 6 days after infestation, read-out: Mortality (%)): 100%
3 | Cn1nc(C(F)(F)C(F)(F)F)c(C(F)(F)F)c1-c1cc(-c2ccc(Cl)c(C(=O)NC3(C#N)CC3)c2)sn1 [Compound 44, 2-chloro-N-(1-cyanocyclopropyl)-5-[3-[2-methyl-5-(1,1,2,2,2-pentafluoroethyl)-4-(trifluoromethyl)pyrazol-3-yl]isothiazol-5-yl]benzamide] | ≥ 80% | ≥ 80% | ≥ 80% | ≥ 80% | ≥ 80% | ≥ 80% | ≥ 50% | ≥ 80% | – | – | – | – | – | 0% | 0% | 50% | 95% | 100% | –
4 | Cn1nc(C(F)(F)C(F)(F)F)c(C(F)(F)F)c1-n1cc(-c2ccc(Cl)c(C(=O)NC3(C#N)CC3)c2)nn1 [Compound A, reference compound] | – | – | – | – | – | – | – | – | 0% | 0% | 100% | 100% | 100% | 0% | 0% | 0% | 60% | 100% | –
